Data as given in patent US20260167641A1, “CRYSTAL FORM OF IMIDAZOPYRAZINE DERIVATIVE, PREPARATION METHOD THEREFOR AND USE THEREOF” (TRANSTHERA SCIENCES (NANJING), INC., priority 2022, published 2026).

Assay: Long-term stability test
Type: physicochemical
Procedure: The samples were stored under the conditions of 25° C./60% RH (relative humidity) and 30° C./65% RH (relative humidity), respectively, and then collected at 1M, 2M, 3M, 6M, 9M, 12M, and 18M. Additionally, the samples were stored under the conditions of 40° C./75% RH (relative humidity) and then collected at 1M, 2M, 3M, and 6M. The appearance, total impurities, content, moisture, and crystal form changes (at 3M, 6M, and 12M) were examined and compared with the results on day 0.

## Nc1nccn2c(C34CCC(NC(=O)CN5CCOCC5)(CC3)C4)nc(-c3ccc(C(=O)Nc4cc(C(F)(F)F)ccn4)cc3)c12 (single isomer, unassigned) [Crystal form II, 4-(8-amino-3-(4-(2-morpholinoacetamido)bicyclo[2.2.1]heptan-1-yl)imidazo[1,5-a]pyrazin-1-yl)-N-(4-(trifluoromethyl)pyridin-2-yl)benzamide]
0 day
  Appearance: Yellow solid
  Content %: 98.3%
  Crystal form XRPD: Crystal form II
  Moisture %: 0.23%
  Total impurities %: 1.1%
6 months at 40° C./75% RH, 18 months at 25° C./60% RH and 30° C./65% RH
  Changes in appearance, total impurities, content, and moisture: no significant changes
25° C./60% RH, 1M
  Appearance: Yellow solid
  Content %: 98.2%
  Moisture %: 0.28%
  Total impurities %: 1.1%
25° C./60% RH, 2M
  Appearance: Yellow solid
  Content %: 98.3%
  Moisture %: 0.16%
  Total impurities %: 1.2%
25° C./60% RH, 3M
  Appearance: Yellow solid
  Content %: 98.4%
  Crystal form XRPD: Crystal form II
  Moisture %: 0.24%
  Total impurities %: 1.1%
25° C./60% RH, 6M
  Appearance: Yellow solid
  Content %: 98.2%
  Crystal form XRPD: Crystal form II
  Moisture %: 0.16%
  Total impurities %: 1.1%
25° C./60% RH, 9M
  Appearance: Yellow solid
  Content %: 98.5%
  Moisture %: 0.23%
  Total impurities %: 1.1%
25° C./60% RH, 12M
  Appearance: Yellow solid
  Content %: 98.2%
  Crystal form XRPD: Crystal form II
  Moisture %: 0.12%
  Total impurities %: 1.1%
25° C./60% RH, 18M
  Appearance: Yellow solid
  Content %: 98.9%
  Moisture %: 0.24%
  Total impurities %: 1.1%
30° C./65% RH, 1M
  Appearance: Yellow solid
  Content %: 98.2%
  Moisture %: 0.24%
  Total impurities %: 1.1%
30° C./65% RH, 2M
  Appearance: Yellow solid
  Content %: 97.9%
  Moisture %: 0.19%
  Total impurities %: 1.2%
30° C./65% RH, 3M
  Appearance: Yellow solid
  Content %: 98.2%
  Crystal form XRPD: Crystal form II
  Moisture %: 0.30%
  Total impurities %: 1.1%
30° C./65% RH, 6M
  Appearance: Yellow solid
  Content %: 98.1%
  Crystal form XRPD: Crystal form II
  Moisture %: 0.13%
  Total impurities %: 1.1%
30° C./65% RH, 9M
  Appearance: Yellow solid
  Content %: 98.4%
  Moisture %: 0.24%
  Total impurities %: 1.1%
30° C./65% RH, 12M
  Appearance: Yellow solid
  Content %: 98.2%
  Crystal form XRPD: Crystal form II
  Moisture %: 0.13%
  Total impurities %: 1.1%
30° C./65% RH, 18M
  Appearance: Yellow solid
  Content %: 99.0%
  Moisture %: 0.17%
  Total impurities %: 1.1%
40° C./75% RH, 1M
  Content %: 98.0%
40° C./75% RH, 2M
  Appearance: Yellow solid
  Content %: 97.9%
  Moisture %: 0.18%
  Total impurities %: 1.2%
40° C./75% RH, 3M
  Appearance: Yellow solid
  Content %: 98.1%
  Crystal form XRPD: Crystal form II
  Moisture %: 0.24%
  Total impurities %: 1.1%
40° C./75% RH, 6M
  Appearance: Yellow solid
  Content %: 98.3%
  Crystal form XRPD: Crystal form II
  Moisture %: 0.13%
  Total impurities %: 1.1%
40° C./75% RH, ^ IM
  Appearance: Yellow solid
  Moisture %: 0.24%
  Total impurities %: 1.1%
